For series [1], the system named is HCT116 cells. Briefly: Growth inhibition / cell viability assay (methylene blue), HCT116. The class given is cell-based, human. Conditions: for IC50: Homo sapiens, HCT-116. The protocol:
(§1) Cell feasibility was examined using methylene blue staining. Cells were plated at a rate of 5000/well in 96 well plates (n=3) respectively and treated the next day. Three days after treatment, cells were fixed/stained in methylene blue saturated in 50% ethanol for 30 min at room temperature. Excessive water was used to wash off extra dye from the plates.

Series [2] relates to NCI-H522 lung cancer cell line. The experiment in a line: Growth inhibition / cell viability assay (methylene blue), NCI-H522. Conditions: Homo sapiens. It counts as cell-based. The protocol:
as §1

Series [3] has as its system WI38 cells. The experiment in a line: Cell survival assay, normal cell line WI38. The class given is cell-based. The settings on record: Homo sapiens, WI-38, FIG. 14A, maximum 30 μM. The source says:
(§2) This reaffirms the selectivity of TFPAs for cancer cells over normal cells.
(§3) HCT116 human colon cancer cells, NCI-H522 human lung cancer cells, HT1080 fibrosarcoma cells, HeLa cervical cancer cells, U2OS osteosarcoma cells, MDA-MB-231 and MDA-MB-468 breast cancer cells, WI38 diploid human cell line, and human retinal pigment epithelial RPE cells were preserved in Dulbecco's Modified Eagle's medium (Mediatech, Inc.) supplemented with 10% calf serum (Atlanta Biologicals) or 10% fetal bovine serum (Gemini Bio-Products #100-106) and 1000 U/ml of both Penicillin and Streptomycin (Mediatech, Inc.) at 37° C. with 5% CO2. Cell feasibility was examined using methylene blue staining. Cells were plated at a rate of 5000/well in 96 well plates (n=3) respectively and treated the next day. Three days after treatment, cells were fixed/stained in methylene blue saturated in 50% ethanol for 30 min at room temperature. Excessive water was used to wash off extra dye from the plates.

The test system of series [4] is RPE cells. The experiment in a line: Cell survival assay, normal cell line RPE. It counts as cell-based. Conditions: Homo sapiens, FIG. 14A, maximum 30 μM.
Text: as §2, §3

In series [5] the test system is HT1080 fibrosarcoma cell line. Briefly: Growth inhibition assay (methylene blue), HT1080. It counts as cell-based. Conditions: Homo sapiens, HT-1080, Table 4, unit inferred. The method, then:
as §1

In series [6] the test system is HeLa cervical cancer cell line. The experiment in a line: Growth inhibition assay (methylene blue), HeLa. The class given is cell-based. Conditions: Homo sapiens, Table 4, unit inferred. The method, then: as §1
In series [7] the test system is U2OS osteosarcoma cell line. The experiment in a line: Growth inhibition assay (methylene blue), U2OS. The class given is cell-based. Conditions: Homo sapiens, Table 4, unit inferred. The protocol:
as §1

Series [8] concerns MDA-MB-468 breast cancer cell line. The experiment in a line: Growth inhibition assay (methylene blue), MDA-MB-468. The class given is cell-based. The settings on record: Homo sapiens, Table 4, unit inferred. The method, then: as §1
Series [9] deals with MDA-MB-231 breast cancer cell line. Briefly: Growth inhibition assay (methylene blue), MDA-MB-231. It counts as cell-based. The settings on record: Homo sapiens, Table 4, unit inferred. The method, then: as §1
Series [10] concerns sixty cell lines. The experiment in a line: NCI 60 cell five-dose assay. The class given is cell-based. Conditions: Total Growth Inhibition.
For series [11], the system named is PARP1. Briefly: Western blot analysis of PARP1 cleavage in HCT116 cells. The settings on record: HCT116 cells treated for 24 h; measure of caspase dependent cell death. It counts as cell-based, human. The protocol:
FIG. 13: Western blot analysis of PARP1 cleavage. HCT116 cells were treated with compounds 83, 84, and 85 at the indicated concentrations for 24 hr. Western blots were probed with an antibody that recognizes a cleaved form of PARP (Cell Signaling Technology 5626) as a measure of caspase dependent cell death.
To determine whether the compounds herein induced apoptosis, the enzyme Poly (ADP ribose) polymerase 1 (PARP1) was analyzed by western blotting. Caspase-dependent proteolytic cleavage of PARP1 is one of the hall marks of apoptosis and antibodies that specifically recognize the cleavage products are available. […] HCT116 cells were treated with compounds 83, 84, and 85 for 24 h.
(§4) NCI-H522 cell pellets obtained were lysed using lysis buffer containing 50 mM Tris (pH 7.4), 150 mM NaCl, 0.5% NP-40, (supplemented with 1 μg/ml aprotinin, 2 μg/ml leupeptin, 1 μg/ml pepstatin A, 1 mM DTT, and […]) for 30 minutes on ice and centrifuged at 13×10^3 g for 25 minutes at 4° C. The protein levels of the obtained lysates were normalized using BCA Protein Assay Kit (Pierce) and separated by SDS-polyacrylamide gel electrophoresis (12.5% acrylamide). Transfer to polyvinylidene difluoride membranes (Millipore) was followed by obstruction of membranes with blocking buffer containing 5% (w/v) non-fat dry milk dissolved in PBST [1×PBS containing 0.05% (v/v) Tween 20] for 1 hour at room temperature. Membranes were then incubated with corresponding primary antibodies overnight at 4° C. The membranes were then washed (3×15 min each) with PBST and incubated with secondary antibodies conjugated to horse-radish peroxidase, obtained from Biorad, and used at a dilution of 1:10,000. Bound antibodies were detected using enhanced chemiluminescence (Biorad).
Background: In western blotting, separated proteins are transferred to a membrane and probed.

For series [12], the system named is sixty cell lines. Briefly: NCI 60 cell one-dose assay. The class given is cell-based. The settings on record: result in words.
In series [13] the test system is acetyl-H3 and pan-acetyl-lysine. Briefly: Hyperacetylation assay by western blot. Conditions: […], 5, and 10 μM, dose dependent. It counts as cell-based, human. The protocol:
The hallmark of HDAC inhibition is the hyperacetylation of several proteins which are substrates for HDACs. Thus, histone H3 hyperacetylation assay of some active compounds was carried out by western blot using antibodies for Histone H3 and pan-acetyl lysine.
as §4

Series [14] can be described thus: S9 fraction metabolic stability assay (LC-ESI-MS). The class given is in vitro ADME. The settings on record: human liver S9 fraction. The source says:
Previous studies established that trifluoromethyl ketones are metabolically unstable and reduced in vivo to trifluoromethyl alcohols (TFMAs). This metabolic reduction caused a major loss in activity. […] It was believed that in TFPAs, the hydrate form of the ketone is stabilized compared to TFMKs, and is therefore less susceptible to reductive metabolism. […] Metabolic stability studies are primarily conducted using liver microsomal assays, as the predominant cytochrome P450 enzymes present in them are responsible for the metabolism of most xenobiotics in the human body. However, P450 transformations are mostly oxidative in nature, precluding their use to assess the stability of ketone drugs against reductive metabolism. […] Thus, using a liver extract containing both cytosol and microsomal enzymes would be more appropriate for this assay. This was accomplished by using the S9 fraction, which is basically the supernatant obtained from centrifugation of hepatocytes at 9000 g and contains both liver cytosol and microsomal enzymes. LC-ESI-MS was used to monitor the reduction of TFPA 60 over time and it was compared with TFMK 91.
A protocol similar to the one previously employed by others using Human Liver S9 fractions instead of liver microsomes was used for the metabolism studies. The assay was initiated by incubating a mixture of the substrate (0.02 mM), buffer (0.1M), and NADPH (1 mM) at 37° C. for ten minutes, followed by addition of the S9 fraction (0.5 mg) to the mixture and gentle mixing. The total volume of the reaction mixture was maintained at 1 mL. […] The reactions in the aliquots were terminated by adding an equal volume of ethyl acetate, mixing thoroughly, and transferring into micro centrifuge tubes. They were vortexed for 2 minutes and then subjected to centrifugation at 10,000×g for 15 minutes to remove the proteins. The top organic layers were extracted and evaporated under reduced pressure. The organic residues from the aliquots were dissolved in methanol first, then diluted 1:1 with water, and analyzed using LC-ESI-MS. A 450 μL aliquot of compound 60 with concentration of 0.02 mM contains 9 nanomoles, which after evaporation, was dissolved in 500 μL of methanol to give 18 μM in concentration of 60. This was diluted 1:1 with water to give a final concentration of 9 μM, which was used for LC-ESI-MS. Similarly, 200 μL of TFMK 91 at a concentration of 0.02 mM contains 4 nanomoles, which after removing ethyl acetate, and dissolving in 250 μL of methanol gives 16 μM concentration of 91. This was diluted 1:1 with water to give 8 μM final concentration for LC-ESI-MS.
The solvent flow rate was 0.2 mL/min, and the sample injection volume was 20 μL. […]

For series [15] the following is noted: stated in the method as reason for the sampling interval; cited from earlier work.
The mark [16] stands for this setting: cap group SAR, HCT116 cell line, maximum concentration of 40 μM, read-out: IC50.
The mark [17] stands for this setting: Table 4, growth inhibition, unit inferred, read-out: IC50 H522.

SMILES strings stand for the structures. Where two headings read alike, the source gives them in different places. Some results are limits rather than exact numbers.

On to `COc1ccc(NC(=O)CCCCCCNC(=O)C(O)(O)C(F)(F)F)cc1` [Compound 55, N-(4-methoxyphenyl)-7-(3,3,3-trifluoro-2,2-dihydroxypropanamido)heptanamide], for which the IC50 (usually the concentration needed to halve the response being measured) in [1] (cancer vs normal cells study, FIG. 14A, maximum 30 μM, read-out: IC50 HCT116) is 3130 nM; in series [1] (setting [16]), 4520 nM; in series [2] (cancer vs normal cells study, FIG. 14A, maximum 30 μM, read-out: IC50 NCI-H522), 8050 nM; in series [3] it was more than 30000 nM; in series [4] it was more than 30000 nM. In addition, the “cell survival HCT116” value in [1] (maximum concentration of 30 μM, FIG. 14B) is recorded as less than 20%.

Turning to `O=C(CCCCCCNC(=O)C(O)(O)C(F)(F)F)Nc1nc2ccccc2s1` [Compound 61, N-(benzo[d]thiazol-2-yl)-7-(3,3,3-trifluoro-2,2-dihydroxypropanamido)heptanamide], the 50% inhibitory concentration (IC50) turned out to be 2370 nM in [1] (setting [16]); 2860 ± 360 nM in series [2] (setting [17]); 2650 ± 210 nM in [5]; 1520 ± 230 nM in series [6]; 1410 ± 180 nM in series [7]; 1310 ± 180 nM in series [8]. This molecule also had an IC50 in series [9] of 1830 ± 350 nM. The total growth inhibition concentration (TGI) (as a rule, the concentration at which net growth stops) in [10] came to 21370 nM.

Consider `COc1ccc2sc(NC(=O)CCCCCCNC(=O)C(O)(O)C(F)(F)F)nc2c1` [Compound 83, N-(5-methoxybenzo[d]thiazol-2-yl)-7-(3,3,3-trifluoro-2,2-dihydroxypropanamido)heptanamide], for which the half-maximal inhibitory concentration (IC50) in series [1] (setting [16]) amounted to 2180 nM; in [2] (setting [17]) it was 3230 ± 410 nM; in series [5], 2280 ± 470 nM; in series [7], 3290 ± 460 nM; in series [8], 3650 ± 110 nM; in series [9], 810 ± 100 nM. The concentration for total growth inhibition (TGI) in [10] was 12300 nM. The “PARP1 cleavage (cleaved PARP1)” value in series [11] is “Dose-dependent elevation of cleaved PARP1 was detectable”.

On to `COc1ccc(-c2cnc(NC(=O)CCCCCCNC(=O)C(O)(O)C(F)(F)F)s2)cc1` [Compound 84, N-(5-(4-methoxyphenyl)thiazol-2-yl)-7-(3,3,3-trifluoro-2,2-dihydroxypropanamido)heptanamide], for which the “cytostatic / cytotoxic activity in NCI 60 assays” value in series [12] is given as “cytotoxic effects”. In addition, the concentration for total growth inhibition (TGI) in [10] is 8510 nM. Also, in [13], the “levels of acetylated H3” value is reported as “increased levels” and the levels of pan-acetyl-lysine entry is “increased levels”. Further, the “PARP1 cleavage (cleaved PARP1)” value in [11] is on record as “Absence of PARP1 cleavage”.

For the molecule `O=C(CCCCCCC(=O)C(F)(F)F)Nc1ccccc1` [Compound 91, reference compound], the IC50 in [1] (setting [16]) came to 10100 nM. Also, the “time to complete disappearance (metabolic reduction) of parent M+1 peak” value in series [14] (NADPH, 37° C., LC-ESI-MS, aliquots every 15 minutes) is not above 15 min. In addition, the “metabolic reduction to the alcohol” value in [14] (result in words) is “quantitative biological reduction”. The half-life entry in series [15] is “less than 30 minutes”.

The record behind these values is patent US20240360089A1, “Metabolically Stable HDAC Inhibitors with Trifluoromethylpyruvamide as Metal-Binding Group” (The University of Toledo, priority 2023, published 2024).
